Experimental data reported in patent publication US20160022606A1, “NOVEL THERAPY FOR PROSTATE CARCINOMA” (PELLFICURE PHARMACEUTICALS INC., priority 2013, published 2016).

Key:
TRAMP-C2 cells = test: Incidence of MI, AP and PY in TRAMP-C2 cells (H2B-GFP) by fluorescent microscopy; assay type: cell-based, mouse; details: for AP (×10^−3) / MI (×10^−3) / PY (×10^−3): RPMI without phenol red, no FCS
Description: At each time point, two peripheral and two central ×20 fields of the tumor are captured with a FITC filter and an integrated frame grabber. Only mitotic figures in metaphase-telophase (MI) are included in the mitotic indices to exclude the potential artifact of nuclear membrane distortion. Apoptotic/Pyknotic nuclei are defined as H2B-GFP labeled nuclei with a cross sectional area <30 μm^2. Nuclear karyorrhexis (NK), easily distinguishable by the vesicular nuclear condensation and brightness of H2BGFP, is included within this apoptotic indices.
For example, TRAMP-C2 cells (transfected with H2B-GFP) were plated at 2.08×10^4 cells/cm^2 density in complete RPMI medium (10% of heat-inactivated FCS, 10^−8 M DHT, 5 μg/ml insulin, 6 ng/ml EGF, 100 U/ml penicillin, 100 μg/ml streptomycin, 2 mM L-glutamine) and grown at 37° C. in a humidified 5% CO2 atmosphere overnight. The cells were 3× washed with PBS and medium was replaced for RPMI medium without phenol red and without FCS. One set of cells had no DHT, the other set was incubated in the presence of DHT 10^−8 M overnight. 24 h later, the medium was replaced for medium (RPMI without phenol red, no FCS) containing increasing concentrations of plumbagin in the range 0-1 μM with DHT 10^−8 M or without DHT. 24 h later the incidence of MI, AP, and PY was evaluated by fluorescent microscopy.

[1] = assay type: physicochemical
Protocol: Plumbagin was formulated as an inclusion complex with heptakis(2,6-di-O-methyl)-beta-cyclodextrin. In brief, a super-saturated solution of plumbagin in 0.1M of heptakis(2,6-di-O-methyl)-beta-cyclodextrin was stirred for 72 hours at 25+/−0.5° C. Then the mixture was filtered through a 0.2 µm nylon membrane filter. The concentration of solubilized plumbagin has been determined by UV-VIS spectroscopy (Amax(263 nm and 417 nm)).

fibrosarcomas = details: in vivo; cited from earlier work
[2] = tested on: P388 lymphocytic leukemia; details: in vivo; cited from earlier work
hepatoma = details: in vivo; cited from earlier work
[3] = tested on: hormone-refractory prostate cancer; details: Aziz et al., Cancer Res. 2008; cited from earlier work
tubulin [4] = details: Acharya et al., Biochemistry 2008; cited from earlier work
tubulin [5] = details: Acharya et al., Biochemistry 2008; cited from earlier work; remark: listed apart in the source
prostate carcinoma cells = details: plumbagin 5 umol/L; cited from earlier work

With C[C@]12CCC(=O)C[C@@H]1CC[C@@H]1[C@@H]2CC[C@]2(C)[C@@H](O)CC[C@@H]12 [DHT, dihydrotestosterone, reference compound] the “AP (×10^−3)” value (TRAMP-C2 cells; DHT 0.01 μM) was 13.8 ×10^−3, the “MI (×10^−3)” value (TRAMP-C2 cells; DHT 0.01 μM) was 4.911 ×10^−3 and the “PY (×10^−3)” value (TRAMP-C2 cells; DHT 0.01 μM) was 0.8681 ×10^−3.
In the case of CC1=CC(=O)c2c(O)cccc2C1=O [Plumbagin, 5-hydroxy-2-methylnaphthalene-1,4-dione], the “induction of cell cycle entry / mitosis compared with DHT” value (TRAMP-C2 cells; 0.6 μM of plumbagin vs DHT at 10^−8 M) is reported as “much more effectively than DHT at 10^−8 M”, the “AP (×10^−3)” value (TRAMP-C2 cells; plumbagin 0.4 μM, 24 h) is reported as 8.852 ×10^−3 and the “MI (×10^−3)” value (TRAMP-C2 cells; plumbagin 0.4 μM, 24 h) is reported as 8.89 ×10^−3. The “PY (×10^−3)” value (TRAMP-C2 cells; plumbagin 0.4 μM, 24 h) was 20.495 ×10^−3, the “AP (×10^−3)” value (TRAMP-C2 cells; plumbagin 0.6 μM, 24 h) was 9.371 ×10^−3 and the “MI (×10^−3)” value (TRAMP-C2 cells; plumbagin 0.6 μM, 24 h) was 14.81 ×10^−3. The “PY (×10^−3)” value (TRAMP-C2 cells; plumbagin 0.6 μM, 24 h) was 16.76 ×10^−3, the “AP (×10^−3)” value (TRAMP-C2 cells; plumbagin 0.8 μM, 24 h) was 16.11 ×10^−3 and the “MI (×10^−3)” value (TRAMP-C2 cells; plumbagin 0.8 μM, 24 h) was 12.7 ×10^−3. The “PY (×10^−3)” value (TRAMP-C2 cells; plumbagin 0.8 μM, 24 h) was 16.73 ×10^−3, the “AP (×10^−3)” value (TRAMP-C2 cells; plumbagin 1 μM, 24 h) was 14.22 ×10^−3 and the “MI (×10^−3)” value (TRAMP-C2 cells; plumbagin 1 μM, 24 h) was 7.285 ×10^−3. The “PY (×10^−3)” value (TRAMP-C2 cells; plumbagin 1 μM, 24 h) was 8.244 ×10^−3, the “K1:1 (phase-solubility diagram analysis)” value [1] was 485 M⁻¹ and the “ED50 anticancer effect toward fibrosarcomas” value (fibrosarcomas) was 0.75 mg/kg body weight. For the same compound, the “ED50 anticancer effect toward P388 lymphocytic leukemia” value [2] was 4 mg/kg body weight, the effect on hepatoma (hepatoma) was “induced regression of hepatoma” and the “effect on hormone-refractory prostate cancer” value [3] was “inhibited growth and invasion of hormone-refractory prostate cancer”. For the same compound, the tubulin binding site (tubulin [4]) was “recognizes the colchicine binding site of tubulin”, the “in vitro tubulin polymerization” value (tubulin [5]) was “inhibits in vitro tubulin polymerization” and the “expression of PKCq, PI3K, AKT, activation of AP-1, NF-κB, Stat3” value (prostate carcinoma cells) was “inhibit expression of multiple molecular targets”.
